From PMC4117522, “Proteasome Inhibitors Alter Levels of Intracellular Peptides in HEK293T and SH-SY5Y Cells” (PLoS ONE, 2014)
Read-outs that look alike come from different tables or passages of the source.

Legend:
[1] = tested on: HEK293T cell aminopeptidase activity (Ala-AMC cleavage); assay: Aminopeptidase assay with Ala-AMC in HEK293T cell extracts; type: biochemical, human; details: HEK293T cell extract; for effect on cleavage of Ala-AMC: 10 µM inhibitor; for residual amount of activity: 50 µM
Experimental: (§1) All enzyme assays described below were performed in the linear range of the assay, as determined from time-course studies. HEK293T cells were lysed by sonication in 50 mM TrisHCl buffer, pH 7.5, containing 40 mM KCl, 5 mM MgCl2, 0.5 mM ATP, and 1 mM DTT (Buffer 1).
(§2) To measure TPP2, the fluorescent substrate was Ala-Ala-Phe-AMC. Aminopeptidase (AP) assays were performed with Leu-AMC and Ala-AMC, which detect leucine aminopeptidase (LAP), puromycin-sensitive aminopeptidase (PSAP), and other enzymes. To measure the effect of aminopeptidase/proteasome inhibitors on cleavage of Ala-Ala-Phe-AMC and Leu-AMC, 1∶50 dilution of the cell extract was pre-incubated with the inhibitor and Buffer 1 for 30 min, followed by addition of 100 µM final concentration of the respective substrate. For Ala-AMC, the same dilution of the cell extract was pre-incubated with the inhibitor and 50 mM MOPS buffer, pH 7.5, containing 40 mM KCl, 5 mM MgCl2, 0.5 mM ATP, and 1 mM DTT (Buffer 2), followed by addition of 100 µM final concentration of the substrate. After incubation at 37°C for 1 hour, enzyme activity was quantified by fluorescence measurement of the substrate (380 nm excitation, 460 nm emission).
(§3) Figure 7 Effect of aminopeptidase inhibitors on Ala-AMC and Leu-AMC cleavage. HEK 293T cell extract (panels A–D) or recombinant PSAP (panels E–F) were treated with increasing concentrations of bestatin or puromycin for 30 minutes followed by the addition of substrate and incubation for 1 hour. Enzyme activity was determined by fluorescence measurement of AMC and expressed as percentage enzyme activity relative to the control without inhibitor. (A) Bestatin inhibition of HEK293T cell extract assayed with Ala-AMC. (B) Bestatin inhibition of HEK293T cell extract assayed with Leu-AMC. (C) Puromycin inhibition of HEK293T cell extract assayed with Ala-AMC. (D) Puromycin inhibition of HEK293T cell extract assayed with Leu-AMC. (E) Puromycin inhibition of purified PSAP assayed with Ala-AMC. (F) Puromycin inhibition of purified PSAP assayed with Leu-AMC. Error bars show standard error of mean (n = 4), points without error bars had error ranges smaller than the symbol size. Statistical analysis was performed using Student’s t-test: *, p≤0.05; **, p≤0.01; ***, p≤0.001; ns, no significant difference (p>0.05) versus the control.
(§4) Figure 8 Effect of proteasome inhibitors on Ala-AMC and Leu-AMC cleavage. HEK 293T cell extract or recombinant PSAP was treated with 10 µM of each of the proteasome inhibitors for 1 hour in addition to a 30 min pre-incubation without the substrate. Enzyme activity was determined by fluorescence measurement of AMC and expressed as percentage enzyme activity relative to the control without inhibitor. Panels A and B represent the effect of proteasome inhibitors on cleavage of Ala-AMC and Leu-AMC respectively, in HEK293T cell extract. […] Error bars show standard error of mean (n = 4). Statistical analysis was performed using Student’s t-test: *, p≤0.05; **, p≤0.01; ***, p≤0.001; ns, no significant difference (p>0.05) versus the control.

[2] = tested on: HEK293T cell aminopeptidase activity (Leu-AMC cleavage); assay: Aminopeptidase assay with Leu-AMC in HEK293T cell extracts; type: biochemical, human; details: HEK293T cell extract; for effect on cleavage of Leu-AMC: 10 µM inhibitor
Experimental: as §1, §2, §3, §4

[3] = biological target: T1, recombinant human puromycin-sensitive aminopeptidase (PSAP, rhNPEPPS) (Homo sapiens, UniProt P55786); assay: Cleavage of Leu-AMC and Ala-AMC by purified recombinant PSAP; type: biochemical; details: for effect on cleavage of Ala-AMC by purified PSAP: 10 µM inhibitor
T1 construct: purchased R&D Systems
T1 sequence (P55786 whole entry): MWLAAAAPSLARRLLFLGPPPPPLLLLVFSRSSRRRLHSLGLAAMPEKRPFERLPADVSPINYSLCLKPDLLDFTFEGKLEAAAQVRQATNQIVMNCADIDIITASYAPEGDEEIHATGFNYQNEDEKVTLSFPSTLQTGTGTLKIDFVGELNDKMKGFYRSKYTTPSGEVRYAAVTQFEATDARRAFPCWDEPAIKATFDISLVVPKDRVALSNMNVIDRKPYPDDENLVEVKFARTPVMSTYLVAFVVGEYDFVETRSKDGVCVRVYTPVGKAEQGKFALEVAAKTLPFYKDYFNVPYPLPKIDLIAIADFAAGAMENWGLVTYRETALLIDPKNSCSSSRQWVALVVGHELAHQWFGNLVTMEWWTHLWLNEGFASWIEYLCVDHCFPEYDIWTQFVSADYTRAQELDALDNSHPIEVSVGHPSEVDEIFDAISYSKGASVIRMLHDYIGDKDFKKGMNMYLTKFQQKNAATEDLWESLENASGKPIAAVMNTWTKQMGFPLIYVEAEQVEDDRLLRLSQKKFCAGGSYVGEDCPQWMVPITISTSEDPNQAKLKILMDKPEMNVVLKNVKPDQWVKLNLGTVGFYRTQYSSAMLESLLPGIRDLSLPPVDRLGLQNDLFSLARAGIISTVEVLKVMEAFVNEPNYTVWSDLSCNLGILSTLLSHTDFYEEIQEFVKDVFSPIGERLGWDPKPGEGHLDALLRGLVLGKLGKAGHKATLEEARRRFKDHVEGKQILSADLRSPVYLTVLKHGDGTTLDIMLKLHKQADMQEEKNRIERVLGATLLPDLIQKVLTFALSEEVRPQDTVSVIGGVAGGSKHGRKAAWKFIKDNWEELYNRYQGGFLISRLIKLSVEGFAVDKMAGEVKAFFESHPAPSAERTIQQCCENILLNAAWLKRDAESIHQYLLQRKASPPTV
Experimental: To measure the effect of inhibitors on cleavage of Leu-AMC and Ala-AMC by purified PSAP, recombinant human PSAP (rhNPEPPS, R&D Systems) was diluted 1∶2000 in Buffer 2 containing 0.1 mg/ml BSA. The enzyme was pre-incubated with the inhibitor and Buffers 1 or 2, followed by addition of 100 µM final concentration of Leu-AMC (to the mix containing Buffer 1) and Ala-AMC (to the mix containing Buffer 2). After incubation at 37°C for 1 hour, PSAP activity was quantified by fluorescence measurement of the substrate (380 nm excitation, 460 nm emission).
as §3, §4

[4] = tested on: HEK293T cells; assay: Quantitative peptidomics (TMAB isotopic labels, LC-MS/MS) of inhibitor-treated HEK293T cells; type: cell-based, human; details: HEK293T cells
Experimental: (§5) HEK293T and SH-SY5Y cells were grown to 80–90% confluence in DMEM and RPMI supplemented with 10% fetal bovine serum and penicillin/streptomycin. A single plate of cells (150 mm×25 mm) was used for each group. At the start of the experiment, media were removed from the plates and cells were washed with DPBS (138 mM NaCl, 8.06 mM Na2HPO4, 2.67 mM KCl, 1.47 mM KH2PO4, 0.9 mM CaCl2 and 0.49 mM MgCl2). This was followed by addition of serum-free media containing the proteasome or aminopeptidase inhibitors, or 0.05% DMSO as a control for the inhibitors that were soluble in DMSO. Each experiment consisted of two control groups and two or three replicate groups of cells treated with one of the inhibitors. The cells were incubated at 37°C for 20 minutes, following which media containing the inhibitor was removed, cells were washed with DPBS, detached from the plate by scraping into DPBS (without trypsin), and centrifuged at 800×g for 5 min. The wash buffer was supplemented with the appropriate inhibitor at the same concentration as used for the treatment, thereby ensuring that the changes induced in peptide levels were not reversed during harvesting of cells due to possible dissociation of the reversible inhibitors. The wash time (including centrifugation) was 15 minutes, for a total treatment time of 35 minutes. After centrifugation, the cell pellet was resuspended in 1 ml of 80°C water and incubated in an 80°C water bath for 20 minutes to inactivate proteases. The mixture was again centrifuged (13,000×g, 30 min, 4°C) and was stored at −80°C overnight. For peptide extraction, the samples were thawed and centrifuged again. The lysate was subsequently cooled on ice and acidified with HCl to a final concentration of 10 mM. After 15 min incubation on ice, the lysate was centrifuged at 13,000×g for 30 min at 4°C. To the supernatant, 250 µL of dibasic sodium phosphate (0.4 M, pH 9.5) was added and the mixture was stored at −80°C until labeling.
(§6) The labeling protocol has been earlier described in detail. Each group within an experiment (control/treated) was labeled with a different isotopic tag. The TMAB-NHS labels were dissolved in DMSO to a concentration of 400 µg/µL and 15 mg of label was used per 150 mm plate of cells. […] At the beginning, the pH of the peptide extract was adjusted to 9.5 with 1 M NaOH. Labeling was performed over 8 rounds; 4.69 µL of the label was added to the extract every 20 min. The pH was measured between each round and if necessary, brought back to 9.5 for the first five rounds. For rounds 6–8, the pH was not adjusted after the addition of the TMAB-NHS reagent. After the final round of label addition, the pH was adjusted to 9.5 again and the extracts were incubated at room temperature for 90 min. Thereafter, 30 µL of 2.5 M glycine was added to quench any unreacted label. Following 40 min incubation at room temperature, the labeled extracts for a single experiment were pooled and filtered through Amicon Ultracel-10 K units. It is important to ensure that only N-terminal amines and lysine side-chain amines of peptides are TMAB-labeled and not tyrosines. To hydrolyze any labeled tyrosine, 30 µL of a 2 M solution of hydroxylamine hydrochloride (pH 3.7) was added over three rounds to the pooled and filtered sample. The pH was measured after the addition of hydroxylamine and adjusted to 9.0 with 1 M NaOH. The samples were desalted through PepClean C-18 spin columns (Thermo Scientific, Rockford, IL, USA) by following manufacturer’s instructions. Peptides were eluted using 160 µL of 0.5% TFA and 70% acetonitrile, frozen at −80°C and then lyophilized in a vacuum centrifuge and stored at −80°C until analysis by mass spectrometry.
(§7) The LC-MS/MS experiments were performed on a Synapt G2 mass spectrometer coupled to a NanoAcquity capillary liquid chromatography system (Waters Co., Milford, MA, USA).

[5] = tested on: SH-SY5Y cells; assay: Quantitative peptidomics (TMAB isotopic labels, LC-MS/MS) of inhibitor-treated SH-SY5Y cells; type: cell-based, human; details: SH-SY5Y cells, 35 min; 2.5 µM MG132, 1 µM other inhibitors
Experimental: as §5, §6, §7

[6] = tested on: tripeptidyl peptidase 2 (TPP2); assay: Ala-Ala-Phe-AMC cleavage (TPP2 substrate) in HEK293T cell extracts; type: biochemical, human; details: HEK293T cell extract, micromolar concentrations
Experimental: as §1, §2
Enzyme activity was determined by fluorescence measurement of AMC and expressed as percentage enzyme activity relative to the control lacking inhibitor. […]

[7] = biological target: T2, proteasome (beta 5, chymotrypsin-like activity) in HEK293T cell extract (Homo sapiens, UniProt P20618+P28074); assay: Proteasome activity in HEK293T cell extracts with beta 5-selective substrate Suc-Leu-Leu-Val-Tyr-AMC; type: biochemical; details: Suc-Leu-Leu-Val-Tyr-AMC, 30 min pre-incubation, 1 hour, read-out: IC50, inhibition of proteasome activity
T2 construct: endogenous in cells; host or cells: HEK293T
Experimental: as §1
To measure proteasome activity, a 1∶50 dilution of the cell extract was pre-incubated with the inhibitor and Buffer 1 for 30 min, followed by addition of 100 µM final concentration of the proteasome substrate succinyl-Leu-Leu-Val-Tyr-7-amino-4-methylcoumarin (Suc-Leu-Leu-Val-Tyr-AMC). After incubation at 37°C for 1 hour, proteasomal activity was quantified by fluorescence measurement of the substrate (380 nm excitation, 460 nm emission).
Figure 2 Inhibition of proteasome activity in HEK293T cells with various proteasome inhibitors. HEK293T cell extract was treated with increasing concentrations of the indicated compound for […] and incubation for 1 hour […]. Enzyme activity was determined by fluorescence measurement of AMC. The resulting activity is expressed as percent enzyme activity relative to the control reaction without inhibitor.

[8] = tested on: HEK293T cells; details: cited from earlier work
[9] = 35 min, 2.5 µM MG132, 1 µM other inhibitors

SMILES: CC(C)C[C@H](NC(=O)[C@H](CC(C)C)NC(=O)[C@H](CC(C)C)NC(=O)OCc1ccccc1)B(O)O [MG262]
- effect on cleavage of Ala-AMC [1]: inhibit
- effect on cleavage of Leu-AMC [2]: inhibit
- effect on cleavage of Ala-AMC by purified PSAP [3]: inhibitory
- change in levels of intracellular peptides (peptidome) [4, 9]: changes that were generally similar to those caused by 500 nM bortezomib
- change in levels of intracellular peptides (peptidome) [5]: changes that were generally similar to those caused by 500 nM bortezomib

SMILES: CC(C)C[C@H](NC(=O)CNC(=O)c1cc(Cl)ccc1Cl)B(O)O [MLN2238]
- effect on cleavage of Ala-AMC [1]: inhibit
- effect on cleavage of Leu-AMC [2]: inhibit
- effect on cleavage of Ala-AMC by purified PSAP [3]: inhibitory
- change in levels of intracellular peptides (peptidome) [4, 9]: the majority of peptides was greatly decreased

SMILES: CC(C)C[C@H](NC(=O)[C@@H](O)[C@H](N)Cc1ccccc1)C(=O)O [bestatin]
- inhibition of Ala-AMC cleavage [1]: > 80%
- residual amount of activity [1]: ~20%
- Enzyme activity (% control with no inhibitor) ([1]; Ala-AMC, bestatin 500 µM, bortezomib 0): 15.5±0.7 % control with no inhibitor
- inhibition of Leu-AMC cleavage [2]: > 80%

SMILES: CCCCNC(=O)[C@@H]1Cc2ccccc2N1C(=O)[C@@H](N)CC [butabindide, reference compound]
- inhibition of Ala-Ala-Phe-AMC cleavage [6]: Approximately 50%
- change in levels of intracellular peptides (peptidome) ([4]; 100 µM bestatin methyl ester 75 min, 100 µM butabindide 35 or 75 min, bestatin): failed to substantially alter the peptide levels

SMILES: CC(C)[C@H](O)[C@@]12NC(=O)[C@H](C)[C@@H]1OC2=O [clasto-Lactacystin β-lactone, reference compound]
- IC50 [7]: ~10 µM
- change in levels of intracellular peptides (peptidome) [4, 9]: the majority of peptides was greatly decreased

SMILES: CC[C@H](C)[C@H](NC(=O)[C@H]([C@@H](C)CC)N(C)C(C)=O)C(=O)N[C@H](C(=O)N[C@@H](CC(C)C)C(=O)[C@@]1(C)CO1)[C@@H](C)O [epoxomicin]
- change in levels of intracellular peptides (peptidome) ([8]; HEK293T cells, 0.2 µM for 1 hour): the majority of peptides was greatly decreased
- levels of peptides arising from cleavage at beta 1 sites ([8]; cells treated for 1 hour with 2 µM): greatly elevated

SMILES: COc1ccc(C[C@H](N)C(=O)N[C@H]2[C@@H](O)[C@H](n3cnc4c(N(C)C)ncnc43)O[C@@H]2CO)cc1 [puromycin]
- inhibition of Ala-AMC cleavage [1]: > 80%
- residual amount of activity [1]: ~20%
- inhibition of Leu-AMC cleavage [2]: > 80%
- potency on purified PSAP versus HEK293T cell extract ([3]; Ala-AMC and Leu-AMC): comparable
